Measurements published in patent US20240166652A1, “MODULATORS OF THE INTEGRATED STRESS PATHWAY” (Calico Life Sciences LLC, priority 2017, published 2024).

System: ATF4 luciferase reporter in HEK293T cells
Test: ATF4-Luc assay (ATF4 luciferase reporter, tunicamycin-treated HEK293T cells)
Assay type: cell-based, human
Conditions: Homo sapiens, HEK-293T; HEK293T cells carrying the ATF4 luciferase reporter, 1 μg/mL tunicamycin, 7 hours

Compound: O=C(COc1ccc(Cl)c(F)c1)NC12CCC(OCCc3ccc(Cl)cc3)(CC1)CC2O (stereo not shown) [Compound 611, 2-(4-chloro-3-fluorophenoxy)-N-{4-[2-(4-chlorophenyl)ethoxy]-2-hydroxybicyclo[2.2.2]octan-1-yl}acetamide]
- EC50: 10 to 50 nM

Compound: O=C(COc1ccc(Cl)c(F)c1)NC12CC(COc3ccccc3)(C1)C2 [Compound 612, 2-(4-chloro-3-fluorophenoxy)-N-[3-(phenoxymethyl)bicyclo[1.1.1]pentan-1-yl]acetamide]
- EC50: > 2000 nM

Compound: CC(C)c1ccc(OCC(=O)NC23CC(NC(=O)COc4ccc(Cl)c(F)c4)(C2)C3)cn1 [Compound 248, 2-(4-chloro-3-fluorophenoxy)-N-[3-(2-{[6-(propan-2-yl)pyridin-3-yl]oxy}acetamido)bicyclo[1.1.1]pentan-1-yl]acetamide]
- EC50: 50 to 250 nM

Compound: O=C(COc1ccc(Cl)c(F)c1)NC12CC(NC(=O)COc3cc(F)c4cn[nH]c4c3)(C1)C2 [Compound 111, 2-(4-chloro-3-fluorophenoxy)-N-(3-{2-[(4-fluoro-1H-indazol-6-yl)oxy]acetamido}-bicyclo[1.1.1]pentan-1-yl)acetamide]
- EC50: < 10 nM

Compound: O=C(COc1ccc(Cl)c(F)c1)NC12CC(NC(=O)Nc3ccc(Cl)cc3)(C1)C2 [Compound 431, 2-(4-chloro-3-fluorophenoxy)-N-(3-{[(4-chlorophenyl)carbamoyl]amino}bicyclo[1.1.1]pentan-1-yl)acetamide]
- EC50: 50 to 250 nM

Compound: O=C(COc1ccc(Cl)c(F)c1)NC12CC(NC(=O)[C@@H](O)c3ccc(Cl)cc3)(C1)C2 [Compound 307, (2S)—N-{3-[2-(4-chloro-3-fluorophenoxy)acetamido]bicyclo[1.1.1]pentan-1-yl}-2-(4-chlorophenyl)-2-hydroxyacetamide]
- EC50: > 2000 nM

Compound: CC(=O)c1ccc(OCC(=O)NC23CC(NC(=O)COc4ccc(Cl)c(F)c4)(C2)C3)cn1 [Compound 235, 2-[(6-acetylpyridin-3-yl)oxy]-N-{3-[2-(4-chloro-3-fluorophenoxy)acetamido]0-bicyclo[1.1.1]pentan-1-yl}acetamide]
- EC50: 50 to 250 nM

Compound: COCc1cc(OCC(=O)NC23CCC(NC(=O)COc4ccc(Cl)c(F)c4)(CC2)[C@@H](O)C3)ccc1Cl [Compound 757, 2-(4-chloro-3-fluorophenoxy)-N-[(2S)-4-{2-[4-chloro-3-(methoxymethyl)phenoxy]acetamido}-2-hydroxybicyclo[2.2.2]octan-1-yl]acetamide]
- EC50: 10 to 50 nM

Compound: O=C(COc1ccc2c(c1)OC(F)(F)O2)NC12CCC(NC(=O)COc3ccc(F)cc3)(CC1)[C@@H](O)C2 [Compound 798, 2-[(2,2-difluoro-2H-1,3-benzodioxol-5-yl)oxy]-N-{(3S)-4-[2-(4-fluorophenoxy)acetamido]-3-hydroxybicyclo[2.2.2]octan-1-yl}acetamide]
- EC50: < 10 nM

Compound: Cc1noc([C@H]2CC3(NC(=O)COc4ccc(Cl)c(F)c4)CCC2(NC(=O)COc2ccc(Cl)c(F)c2)CC3)n1 [Compound 420, N,N′-[(2S)-2-(3-methyl-1,2,4-oxadiazol-5-yl)bicyclo[2.2.2]octane-1,4-diyl]bis[2-(4-chloro-3-fluorophenoxy)acetamide]]
- EC50: < 10 nM

Compound: O=C(COc1ccc(Cl)c(F)c1)NC12CC(NC(=O)COc3ccc(F)c(Cl)c3)(C1)C2 [Compound 534, 2-(4-chloro-3-fluorophenoxy)-N-{3-[2-(3-chloro-4-fluorophenoxy)acetamido]bicyclo[1.1.1]pentan-1-yl}acetamide]
- EC50: < 10 nM

Compound: Cc1ccc(OCC(=O)NC23CC(NC(=O)COc4ccc(Cl)c(F)c4)(C2)C3)cn1 [Compound 206, 2-(4-chloro-3-fluorophenoxy)-N-(3-{2-[(6-methylpyridin-3-yl)oxy]acetamido}bicyclo[1.1.1]pentan-1-yl)acetamide]
- EC50: 50 to 250 nM

Compound: CN(C(=O)COc1ccc(C(F)(F)F)nc1)C12CCC(NC(=O)COc3ccc(Cl)c(F)c3)(CC1)C[C@@H]2O [Compound 377, N-{(2S)-4-[2-(4-chloro-3-fluorophenoxy)acetamido]-2-hydroxybicyclo[2.2.2]octan-1-yl}-N-methyl-2-{[6-(trifluoromethyl)pyridin-3-yl]oxy}acetamide]
- EC50: 500 to 2000 nM
